In patent publication US9611278B2 (Merck Sharp & Dohme Corp., priority 2013, dated 2017):

Molecular target: T1, sGC α1/β1 heterodimer stably expressed in CHO-K1 cells (CHO-K1/sGC) (Homo sapiens, UniProt Q02108+Q02153)
T1 construct: expressed in transfected cells
T1 sequence (Q02108 1-690): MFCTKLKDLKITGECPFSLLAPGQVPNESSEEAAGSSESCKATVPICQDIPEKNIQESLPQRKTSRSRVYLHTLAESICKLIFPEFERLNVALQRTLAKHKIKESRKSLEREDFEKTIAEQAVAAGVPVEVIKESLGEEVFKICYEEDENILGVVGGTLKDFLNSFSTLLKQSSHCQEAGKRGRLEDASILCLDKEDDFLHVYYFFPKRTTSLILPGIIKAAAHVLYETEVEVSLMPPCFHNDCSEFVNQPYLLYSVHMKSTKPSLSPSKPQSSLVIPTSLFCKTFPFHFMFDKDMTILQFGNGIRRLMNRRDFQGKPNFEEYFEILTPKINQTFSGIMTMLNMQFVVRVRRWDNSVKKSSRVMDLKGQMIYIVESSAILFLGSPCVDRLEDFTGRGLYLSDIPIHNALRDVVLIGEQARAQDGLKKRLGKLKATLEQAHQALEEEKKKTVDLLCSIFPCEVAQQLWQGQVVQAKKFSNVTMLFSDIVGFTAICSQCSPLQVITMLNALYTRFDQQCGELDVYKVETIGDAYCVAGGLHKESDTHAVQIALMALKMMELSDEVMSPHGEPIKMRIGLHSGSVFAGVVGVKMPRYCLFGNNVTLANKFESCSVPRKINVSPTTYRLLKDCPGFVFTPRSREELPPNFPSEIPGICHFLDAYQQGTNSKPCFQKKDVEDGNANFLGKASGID
T1 sequence (Q02153 1-619): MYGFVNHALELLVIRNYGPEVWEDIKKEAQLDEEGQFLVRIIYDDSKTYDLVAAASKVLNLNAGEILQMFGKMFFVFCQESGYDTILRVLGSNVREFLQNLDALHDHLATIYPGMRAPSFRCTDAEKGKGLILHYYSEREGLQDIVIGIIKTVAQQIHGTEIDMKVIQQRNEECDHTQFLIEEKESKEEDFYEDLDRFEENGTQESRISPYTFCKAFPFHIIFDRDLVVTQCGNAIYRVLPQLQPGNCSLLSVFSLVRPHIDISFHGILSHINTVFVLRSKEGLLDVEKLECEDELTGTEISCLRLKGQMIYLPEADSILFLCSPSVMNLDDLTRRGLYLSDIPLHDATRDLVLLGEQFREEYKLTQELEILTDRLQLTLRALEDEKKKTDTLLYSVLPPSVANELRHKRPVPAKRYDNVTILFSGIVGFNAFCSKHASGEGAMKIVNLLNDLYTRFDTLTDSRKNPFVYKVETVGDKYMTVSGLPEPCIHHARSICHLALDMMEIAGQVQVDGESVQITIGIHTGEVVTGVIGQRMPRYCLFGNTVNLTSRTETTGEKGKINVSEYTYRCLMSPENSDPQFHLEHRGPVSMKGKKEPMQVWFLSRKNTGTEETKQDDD
Experiment: Cell-based sGC Functional Assay (CASA Assay)
Conditions: for % Act.: activation as percentage of maximum cGMP production of Compound A (set to 100%); for EC50: inflection point of cGMP generation in CHO-K1/sGC cells, 4P fit, 1 hr at 37° C., read-out: IP; for Emax: CHO-K1, activation as percentage of maximum cGMP production of Compound A (set to 100%), read-out: % Act.
Source text: sGC is a heme-containing enzyme that converts GTP to secondary messenger cGMP. Increases in cGMP levels affect several physiological processes including vasorelaxation through multiple downstream pathways. […] Heme-dependent activators (HDAs) preferentially activate sGC containing a ferrous heme group. To determine the effect of sGC activators on enzyme activity, the CASA assay was developed to monitor the generation of cGMP in a cell line that stably expresses the heterodimeric sGC protein.
A CHO-K1 cell line stably expressing the sGC α1/β1 heterodimer was generated using a standard transfection protocol. CHO-K1 cells were transfected with plasmids pIREShyghsGCα1 and pIRESneo-hsGCβ1 simultaneously using FUGENE reagent. Clones that stably express both subunits were selected with hygromycin and neomycin for ˜2 weeks. Clone #7 was chosen for the assay and was designated CHO-K1/sGC. CHO-K1/sGC cells were maintained in F-K12 medium containing 10% heat-inactivated Fetal Bovine Serum (FBS), 100 μg/mL penicillin/streptomycin, 0.5 mg/mL hygromycin and 0.25 mg/mL G418. The cells were then cryopreserved in LN2. On the day of the assay, cells thawed and resuspended in EBSS Assay Buffer (EAB, Sigma, E3024) supplemented with 5 mM MgCl2, 10 mM HEPES (4-(2-hydroxyethyl)piperazine-1-ethanesulfonic acid) and 0.05% BSA (bovine serum albumin) and cell density was then adjusted to 4×10^5/mL with EAB. IBMX (3-isobutyl-1-methylxanthin, 0.5 mM) was added to inhibit degradation of cGMP. Compounds were diluted from DMSO stock solutions and added to the assay at a final DMSO concentration of 2.5%. Cells were incubated with compounds in the presence and absence of 1 μM of Diethylenetriamine/nitric oxide adduct (DETA-NO; Sigma, 17018) for 1 hr at 37° C. At the end of the incubation period, the reaction was terminated and the cells were lysed with the detection reagents from Cisbio Kits. The level of intracellular cGMP was determined using an HTRF-based assay kit (CisBio, 62GM2PEC), which detects the displacement of a fluorescence labeled cGMP from its specific antibody. The cGMP produced by test compounds was directly compared to the maximum cGMP production (this value was set to equal 100% activation.) of the published sGC-HDA Compound A:
(Example 1 in WO 2010/065275, published Jun. 10, 2010). The test compounds' activity were then expressed as a percentage of Compound A, the standard in every experiment. This percent activation was calculated either in the presence or absence of DETA-NO which was then plotted. IP and maximum fold induction was derived using ADA analysis software for 4P fit.

Row | % Act. [%] | EC50 [nM] | Emax [%] | Compound
1 | 148 | 90 |  | 4-Amino-5-cyclopropyl-2-(6-((3,3-difluorocyclobutyl)methyl)-1-methyl-1H-pyrazolo[3,4-d]pyrimidin-4-yl)-5-(5-ethyl-1,3,4-oxadiazol-2-yl)-5,7-dihydro-6H-pyrrolo[2,3-d]pyrimidin-6-one [Example 52]
2 | 117 | 416 |  | 4-Amino-5-ethyl-2-(1-methyl-6-(3,3,4,4,4-pentafluorobutyl)-1H-pyrazolo[3,4-d]pyrimidin-4-yl)-5-(1-propyl-1H-1,2,3-triazol-4-yl)-5,7-dihydro-6H-pyrrolo[2,3-d]pyrimidin-6-one [Example 73]
3 |  | 43 | 116 | CCCCc1nc(-c2nc(N)c3c(n2)NC(=O)C3(C)c2ccc(OC)cn2)c2cnn(C)c2n1 (single isomer, unassigned) [Example 36, 4-Amino-2-(6-butyl-1-methyl-1H-pyrazolo[3,4-d]pyrimidin-4-yl)-5-(5-methoxypyridin-2-yl)-5-methyl-5,7-dihydro-6H-pyrrolo[2,3-d]pyrimidin-6-one]
4 | 89 | 371 |  | [2H]C([2H])([2H])n1ncc2c(-c3nc(N)c4c(n3)NC(=O)C4(c3nnc(C)o3)C3CC3)nc(CCC(F)(F)C(F)(F)F)nc21 (single isomer, unassigned) [Example 40A, 4-Amino-5-cyclopropyl-5-(5-methyl-1,3,4-oxadiazol-2-yl)-2-(1-(methyl-d3)-6-(3,3,4,4,4-pentafluorobutyl)-1H-pyrazolo[3,4-d]pyrimidin-4-yl)-5,7-dihydro-6H-pyrrolo[2,3-d]pyrimidin-6-one]
5 | 68 | 292 |  | [2H]C([2H])([2H])n1ncc2c(-c3nc(N)c4c(n3)NC(=O)C4(c3nnc(C)o3)C3CC3)nc(CCC(F)(F)C(F)(F)F)nc21 (single isomer, unassigned) [Example 40B, 4-Amino-5-cyclopropyl-5-(5-methyl-1,3,4-oxadiazol-2-yl)-2-(1-(methyl-d3)-6-(3,3,4,4,4-pentafluorobutyl)-1H-pyrazolo[3,4-d]pyrimidin-4-yl)-5,7-dihydro-6H-pyrrolo[2,3-d]pyrimidin-6-one]
6 |  | 147 | 125 | [2H]C([2H])([2H])n1ncc2c(-c3nc(N)c4c(n3)NC(=O)C4(C)c3cn(C(C)C)nn3)nc(CCC(F)(F)C(F)(F)F)nc21 (single isomer, unassigned) [Example 57, 4-Amino-5-(1-isopropyl-1H-1,2,3-triazol-4-yl)-5-methyl-2-(1-(methyl-d3)-6-(3,3,4,4,4-pentafluorobutyl)-1H-pyrazolo[3,4-d]pyrimidin-4-yl)-5,7-dihydro-6H-pyrrolo[2,3-d]pyrimidin-6-one]
7 |  | 713 | 105 | CCC1(c2cn(C)nn2)C(=O)Nc2nc(-c3nc(CCC(F)(F)C(F)(F)F)nc4c3cnn4C)nc(N)c21 (single isomer, unassigned) [Example 58, 4-Amino-5-ethyl-5-(1-methyl-1H-1,2,3-triazol-4-yl)-2-(1-methyl-6-(3,3,4,4,4-pentafluorobutyl)-1H-pyrazolo[3,4-d]pyrimidin-4-yl)-5,7-dihydro-6H-pyrrolo[2,3-d]pyrimidin-6-one]
8 |  | 933 | 136 | Cn1ncc2c(-c3nc(N)c4c(n3)NC(=O)C4(C)c3c[nH]nn3)nc(CCC(F)(F)C(F)(F)F)nc21 (single isomer, unassigned) [Example 60, 4-Amino-S-methyl-2-(1-methyl-6-(3,3,4,4,4-pentafluorobutyl)-1H-pyrazolo[3,4-d]pyrimidin-4-yl)-5-(1H-1,2,3-triazol-4-yl)-5,7-dihydro-6H-pyrrolo[2,3-d]pyrimidin-6-one]
9 |  | 800 | 99 | Cn1cc(C2(C3CC3)C(=O)Nc3nc(-c4nc(CCCC(F)(F)F)nc5c4cnn5C)nc(N)c32)nn1 (single isomer, unassigned) [Example 62, 4-Amino-5-cyclopropyl-5-(1-methyl-1H-1,2,3-triazol-4-yl)-2-(1-methyl-6-(4,4,4-trifluorobutyl)-1H-pyrazolo[3,4-d]pyrimidin-4-yl)-5,7-dihydro-6H-pyrrolo[2,3-d]pyrimidin-6-one]
10 |  | 811 | 133 | CCC1(c2cn(C(C)C)nn2)C(=O)Nc2nc(-c3nc(CCC(F)(F)C(F)(F)F)nc4c3cnn4C)nc(N)c21 (single isomer, unassigned) [Example 68, 4-Amino-5-ethyl-5-(1-isopropyl-1H-1,2,3-triazol-4-yl)-2-(1-methyl-6-(3,3,4,4,4-pentafluorobutyl)-1H-pyrazolo[3,4-d]pyrimidin-4-yl)-5,7-dihydro-6H-pyrrolo[2,3-d]pyrimidin-6-one]
11 |  | 217 | 169 | CCCn1cc(C2(C)C(=O)Nc3nc(-c4nc(CCC(F)(F)C(F)(F)F)nc5c4cnn5C)nc(N)c32)nn1 (single isomer, unassigned) [Example 71, 4-Amino-5-methyl-2-(1-methyl-6-(3,3,4,4,4-pentafluorobutyl)-1H-pyrazolo[3,4-d]pyrimidin-4-yl)-5-(1-propyl-1H-1,2,3-triazol-4-yl)-5,7-dihydro-6H-pyrrolo[2,3-d]pyrimidin-6-one]
12 |  | 503 | 121 | CCCn1cc(C2(CC)C(=O)Nc3nc(-c4nc(CCC(F)(F)C(F)(F)F)nc5c4cnn5C)nc(N)c32)nn1 (single isomer, unassigned) [Example 72, 4-Amino-5-ethyl-2-(1-methyl-6-(3,3,4,4,4-pentafluorobutyl)-1H-pyrazolo[3,4-d]pyrimidin-4-yl)-5-(1-propyl-1H-1,2,3-triazol-4-yl)-5,7-dihydro-6H-pyrrolo[2,3-d]pyrimidin-6-one]

Row | Compound | % Act. [%] | EC50 [nM] | Emax [%]
13 | 4-Amino-5-methyl-5-(5-methyl-1,3,4-thiadiazol-2-yl)-2-(1-methyl-6-(3,3,4,4,4-pentafluorobutyl)-1H-pyrazolo[3,4-d]pyrimidin-4-yl)-5,7-dihydro-6H-pyrrolo[2,3-d]pyrimidin-6-one [Example 27] | 89 | 208 | 
